Experimental data reported in patent US12091393B2, “Small molecule vaccine adjuvant for enhancing or prolonging immune response” (The Regents of the University of California, priority 2018, dated 2024).
Entries after “also recorded” stand apart in the source; their conditions may differ. Read-outs that look alike come from different tables or passages of the source.

Assays:
[1] = test system: NF-κB; test: cell-based NF-κB FRET assay; settings: compound + LPS; two point normalized, compound 1 as 200%, LPS (10 ng/mL) as 100%
Source text: Site A was assigned the 4-substituent of thiazole ring, site B was the thiazole ring itself, site C was the central amide bond in the structure, site D was the benzene ring bearing 1,4-carboxyl and sulfamoyl group, site E was the sulfonamide functional group and site F was the amide substituent on the sulfamoyl group.

[2] = test system: NF-κB; test: Measurement of NF-κB activation using THP1-Blue NF-κB cells (SEAP); assay type: cell-based; settings: for NF-κB activity (SAR discussion, in words): evaluated in both the presence and absence of LPS
[3] = test system: THP-1 cells; test: Cell viability assay (MTT); assay type: cell-based; settings: compound 5 μM alone, 18 h, normalized to DMSO as 100%
Procedure, shortened: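 THP-1 cells in RPMI/10% FBS got compound at a final 5 μM (0.05% DMSO) for 18 h. MTT (0.5 mg/mL) was then added for 4 to 6 h, followed by SDS/HCl lysis overnight. Absorbance was read at 570 nm against 650 nm reference.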

[4] = compound 5 μM + LPS, 20 h, two point normalized, compound 1 as 200%, LPS (10 ng/mL) as 100%, read-out: NF-κB SEAP Compound + LPS % Activation
[5] = compound 5 μM alone, 20 h, two point normalized, compound 1 as 200%, LPS or DMSO as 100%, read-out: NF-κB SEAP Compound alone % Activation

SMILES	NF-κB FRET Compound + LPS % Activation [1]	activity at 5 µM [2, 4]	activity at 5 µM [2, 5]	NF-κB activity (SAR discussion, in words) [2]	MTT Compound alone % Viability [3]	NF-κB SEAP Compound + LPS % Activation ([2]; compound 5 μM + LPS, 20 h, two point normalized, compound 1 as 200%, LPS (10 ng/mL) as 100%)	NF-κB SEAP Compound alone % Activation ([2]; compound 5 μM alone, 20 h, two point normalized, compound 1 as 200%, LPS or DMSO as 100%)	NF-κB activity when tested alone (in words) ([2]; compound alone, without LPS)
C#Cc1ccc(C)c(-c2csc(NC(=O)c3ccc(S(=O)(=O)N4CCCCC4)cc3)n2)c1 [Compound 12t, N-(4-(5-ethynyl-2-methylphenyl)thiazol-2-yl)-4-(piperidin-1-ylsulfonyl)benzamide]	88.20%	90%	101%	inactive	82.42%			
Cc1ccc(C)c(-c2csc(NC(=O)c3ccc(S(=O)(=O)N4CCCCC4)nc3)n2)c1 [Compound 46b, N-(4-(2,5-dimethylphenyl)thiazol-2-yl)-6-(piperidin-1-ylsulfonyl)nicotinamide]	146.35%	115%	100%	none of these modifications at site D or E were tolerated	88.57%			
Cc1ccc(C)c(-c2csc(NC(=O)c3ccc(S(=O)(=O)N4CCCCC4)cn3)n2)c1 [Compound 46a, N-(4-(2,5-dimethylphenyl)thiazol-2-yl)-5-(piperidin-1-ylsulfonyl)picolinamide]	151.90%	111%	99.2%	none of these modifications at site D or E were tolerated	94.46%			
CC(=O)N1CCN(S(=O)(=O)c2ccc(C(=O)Nc3nc(-c4cc(C)ccc4C)cs3)cc2)CC1 [Compound 58j, 4-((4-acetylpiperazin-1-yl)sulfonyl)-N-(4-(2,5-dimethylphenyl)thiazol-2-yl)benzamide]	90.73%	101%	101%	inactive	72.09%			
CCSc1sc(NC(=O)c2ccc(S(=O)(=O)N3CCCCC3)cc2)nc1-c1cc(C)ccc1C [Compound 18k, N-(4-(2,5-dimethylphenyl)-5-(ethylthio)thiazo-2-yl)-4-(piperidin-1-ylsulfonyl)benzamide]	167.51%			completely inactive	111.74%	104.47%	100.75%	
Cc1ccc(C)c(-c2nc(NC(=O)c3ccc(S(=O)(=O)N4CCCCC4)cc3)sc2Br)c1 [Compound 18n, N-(5-bromo-4-(2,5-dimethylphenyl)thiazol-2-yl)-4-(piperidin-1-ylsulfonyl)benzamide]	154.54%	198%	133%		84.46%			
Cc1ccc(N=[N+]=[N-])cc1-c1csc(NC(=O)c2ccc(S(=O)(=O)N3CCCCC3)cc2)n1 [Compound 67, N-(4-(5-azido-2-methylphenyl)thiazol-2-yl)-4-(piperidin-1-ylsulfonyl)benzamide]	168.96%	159%	177%	retained activity	90.50%			
Cc1ccc(C)c(-c2csc(NC(=O)c3ccc(S(=O)(=O)C4CCCCC4)cc3)n2)c1 [Compound 49b, 4-(cyclohexylsulfonyl)-N-(4-(2,5-dimethylphenyl)thiazol-2-yl)benzamide]	136.43%	114%	99.8%	none of these modifications at site D or E were tolerated	81.81%			
Cc1ccc(C)c(-c2c[nH]c(NC(=O)c3ccc(S(=O)(=O)N4CCCCC4)cc3)n2)c1 [Compound 18a, N-(4-(2,5-dimethylphenyl)-1H-imidazol-2-yl)-4-(piperidin-1-ylsulfonyl)benzamide]	142.21%	97.3%	99.3%	none of these molecules that replaced the thiazole functionality were active	50.69%			
Cc1ccc(C)c(-c2csc(C(=O)Nc3ccc(S(=O)(=O)N4CCCCC4)cc3)n2)c1 [Compound 34b, 4-(2,5-dimethylphenyl)-N-(4-(piperidin-1-ylsulfonyl)phenyl)thiazole-2-carboxamide]	134.57%	104%	98.8%	weak activity	91.08%			
CCCCc1sc(NC(=O)c2ccc(S(=O)(=O)N3CCCCC3)cc2)nc1-c1cc(C)ccc1C [Compound 18s, N-(5-butyl-4-(2,5-dimethylphenyl)thiazol-2-yl)-4-(piperidin-1-ylsulfonyl)benzamide]	176.96%	124%	116%	retained activity	141.98%			
CCCC#Cc1sc(NC(=O)c2ccc(S(=O)(=O)N3CCC(CCC)CC3)cc2)nc1-c1cc(C)ccc1C [Compound 61, N-(4-(2,5-dimethylphenyl)-5-(pent-1-yn-1-yl)thiazol-2-yl)-4-((4-propylpiperidin-1-yl)sulfonyl)benzamide]	207.19%	189%	119%	very potent and showed better potency than compound 1	102.98%			
Cc1ccc(C)c(-c2ccc(NC(=O)c3ccc(S(=O)(=O)N4CCCCC4)cc3)nc2)c1 [Compound 18c, N-(5-(2,5-dimethylphenyl)pyridin-2-yl)-4-(piperidin-1-ylsulfonyl)benzamide]	73.65%	97.9%	98.3%	none of these molecules that replaced the thiazole functionality were active	92.06%			
Cc1ccc(C)c(-c2cccc(NC(=O)c3ccc(S(=O)(=O)N4CCCCC4)cc3)n2)c1 [Compound 18b, N-(6-(2,5-dimethylphenyl)pyridin-2-yl)-4-(piperidin-1-ylsulfonyl)benzamide]	146.10%		99.6%	none of these molecules that replaced the thiazole functionality were active	93.89%			
CCCC1CCN(S(=O)(=O)c2ccc(C(=O)Nc3nc(-c4cc(C)ccc4C)cs3)cc2)CC1 [Compound 58h, N-(4-(2,5-dimethylphenyl)thiazol-2-yl)-4-((4-propylpiperidin-1-yl)sulfonyl)benzamide]	218.16%	248%	517%	active; also recorded: most potent	111.27%			very potent
Cc1ccc(C)c(-c2csc(NC(=O)c3ccc(S(=O)(=O)N4CCNCC4)cc3)n2)c1 [Compound 58i, N-(4-(2,5-dimethylphenyl)thiazol-2-yl)-4-(piperazin-1-ylsulfonyl)benzamide]	101.27%	104%	101%	inactive	75.86%			
CC(C)(C)Cc1csc(NC(=O)c2ccc(S(=O)(=O)N3CCCCC3)cc2)n1 [Compound 12j, N-(4-neopentylthiazol-2-yl)-4-(piperidin-1-ylsulfonyl)benzamide]	110.62%	93.9%	99.5%	None of these molecules had any NF-κB activity	125.52%			
CCN(CC)c1sc(NC(=O)c2ccc(S(=O)(=O)N3CCCCC3)cc2)nc1-c1cc(C)ccc1C [Compound 18g, N-(5-(diethylamino)-4-(2,5-dimethylphenyl)thiazol-2-yl)-4-(piperidin-1-ylsulfonyl)benzamide]	92.64%	98.1%	98%	completely inactive	94.30%			
Cc1ccc(C)c(-c2nc(NC(=O)c3ccc(S(=O)(=O)N4CCCCC4)cc3)sc2N2CCCCC2)c1 [Compound 18h, N-(4-(2,5-dimethylphenyl)-5-(piperidin-1-yl)thiazol-2-yl)-4-(piperidin-1-ylsulfonyl)benzamide]	99.96%	99.9%	99.2%	completely inactive	89.45%			
CCCN(CC)S(=O)(=O)c1ccc(C(=O)Nc2nc(-c3cc(C)ccc3C)cs2)cc1 [Compound 58a, N-(4-(2,5-dimethylphenyl)thiazol-2-yl)-4-(N-ethyl-N-propylsulfamoyl)benzamide]	158.36%	217%	207%	tolerated; also recorded: active	73.63%			
